According to article PMC2847018 (Biochemical pharmacology, 2010):
“Also recorded” adds a separate entry of the source. Counter-ions that a name gives are not always drawn. Like-named read-outs stand apart in the source and are kept apart here.

How the values were obtained:
[1] = tested on: placental carbonyl-reducing enzymes (human placental microsomes); assay type: biochemical; settings: bupropion 40 μM, pooled placental microsomes, 40 min 37°C; for effect on formation of threo- and erythrohydrobupropion: inhibitor 500 μM
[2] = tested on: 11β-HSD1; settings: 11β-HSD1 ref 44; cited from earlier work
[3] = tested on: placental carbonyl-reducing enzymes (human placental microsomes); test: Type of inhibition and Ki of 18β-GA on bupropion reduction; assay type: biochemical; settings: Lineweaver-Burk plot: apparent Km increased, Vmax not affected
[4] = Kinetics of bupropion reduction by human placental microsomes; assay type: in vitro ADME; settings: Mean±S.D. of HPM 1-6

In the case of `Cc1cn[nH]c1` [4-methylpyrazole], the “effect on formation of threo- and erythrohydrobupropion” value (shortened to “effect on formation”) [1] is reported as “did not inhibit”.
For `CC1(C)[C@@H](O)CC[C@]2(C)[C@H]3C(=O)C=C4[C@@H]5C[C@@](C)(C(=O)O)CC[C@]5(C)CC[C@@]4(C)[C@]3(C)CC[C@@H]12` [18β-GA, 18β-glycyrrhetinic acid], the “inhibition of formation of threo- and erythrohydrobupropion” value ([1]; inhibitor 0.1 μM) is given as 80%, the IC50 [2] is given as […] and the “type of inhibition of bupropion reduction” value [3] is given as “competitive”.
In the case of `CCC1(CC)C(=O)NC(=O)NC1=O` [barbital], the “effect on formation” value [1] is reported as “did not inhibit”.
In the case of `CC(NC(C)(C)C)C(=O)c1cccc(Cl)c1` (stereo not shown) [bupropion, Bupropion hydrochloride], the “Vmax, erythrohydrobupropion formation” value [4] is reported as 3.1±1.2 picomoles per minute per milligram of protein and the “Vmax, threohydrobupropion formation” value [4] is reported as 18.6±6.1 picomoles per minute per milligram of protein.
In the case of `O=c1oc2ccccc2c(O)c1Cc1c(O)c2ccccc2oc1=O` [dicumarol], the “effect on formation” value [1] is reported as “did not inhibit; also recorded: did not affect”.
With `O=C(O)c1ccccc1Nc1cccc(C(F)(F)F)c1` [flufenamic acid] the “inhibition of formation of threo- and erythrohydrobupropion” value ([1]; inhibitor 4 μM) was 50%.
In the case of `CC1=CC(=O)c2ccccc2C1=O` [menadione], the “inhibition of formation of threo- and erythrohydrobupropion” value ([1]; inhibitor 100 μM) is reported as 70%.
